Results as given in US20170296629A1, “INHIBITOR OF EXTRACELLULAR TRAP FORMATION IN LEUKOCYTE” (KEIO UNIVERSITY, priority 2014, published 2017).
Ends that are not written are not given here.

Test system: Healthy Individual's Peripheral Blood Neutrophil
Test: Inhibition of NET formation in neutrophils pretreated with lactoferrin-derived peptide fragment; DNA concentration in culture supernatant (Picogreen)
Type: cell-based
Settings: human neutrophils, pretreatment with peptide
Method: Effect of Inhibiting NET Formation Stimulation of Healthy Individual's Peripheral Blood Neutrophil by Pretreatment with Lactoferrin-derived Peptide Fragment
For each round of experiment, 15 ml to 20 ml of peripheral blood was collected from a healthy individual by using an EDTA-containing syringe (with a needle of 18 to 22 G). After collecting the blood, in a 15 ml conical tube charged with 3 ml of Mono-Poly Resolving Medium (Cat No. DSBN100, DS Pharma Biochemical Co., Ltd.), 3.5 ml of the whole blood was gently layered over a lower layer of Mono-Poly Resolving Medium. The resultant 15 ml conical tube was centrifuged with a swing centrifuge at room temperature (15 to 30° C.) at 400×g for 20 minutes, and the conical tube was then gently taken out. An uppermost brown plasma layer and a lymphocyte/monocyte layer thereunder were removed with an aspirator or the like. In addition, a transparent layer under the lymphocyte/monocyte layer was removed as much as possible. A pale pink layer under the transparent layer was taken out with a Pasteur pipette, and transferred, for washing neutrophils, to a test tube charged with phosphate buffered saline (PBS(−); 137 mM of sodium chloride, 2.7 mM of potassium chloride, 8.1 mM of disodium hydrogen phosphate dodecahydrate, and 1.47 mM of potassium dihydrogen phosphate). The test tube thus holding the neutrophils was centrifuged at room temperature (15 to 30° C.) at 200×g for 10 minutes. The test tube was taken out, and a supernatant was discarded. To the neutrophils held in the test tube, sterile water at 4° C. was added, and the resultant was allowed to stand still on ice for 30 seconds for hemolyzing erythrocytes mixed therein. After the hemolysis, 45 ml of PBS(−) was added thereto, and the resultant was centrifuged at 200×g for 10 minutes. […]
A culture supernatant was collected, centrifuged at 200×g for 10 minutes, and the thus obtained supernatant was transferred to a fresh microcentrifuge tube. The amount of DNA was measured by using Picogreen dsDNA assay reagent (P11496 Invitrogen) in accordance with the accompanying protocol.

| Substance | inhibition of the NET (FIG. 2) (FIG. 2) | inhibition of the NET formation, dependence on amount (FIG. 3) |
| --- | --- | --- |
| SEQ ID NO: 6: Bovine lactoferricin; basic peptide obtained by pepsin hydrolysis of bovine lactoferrin, also prepared by PH Japan (MFKCRRWQWRMKKLGAPSITCVRRAF; ends and bridges not checked; cysteine pairing not given here; listed as Bos taurus) | found to have the inhibiting effect | inhibited the NET formation in a volume-dependent manner |
| SEQ ID NO: 7: Human lactoferricin, basic peptide prepared by PH Japan (GRRRRSVQWCAVSQPEATKCFQWQRNMRKVRGPPVSCIKRDSPIQCIQA; listed as Homo sapiens) |  | inhibited the NET formation in a volume-dependent manner |
